Reference: patent US4127722A, “Benzhydrylsulphinyl derivatives” (Laboratoire L. Lafon, priority 1975, dated 1978)
“Also recorded” adds a separate entry of the source. Structures can show the parent of a compound that is named as a salt.

Columns and labels:
[1] = Toxicity, gastric administration, mice; conditions: mouse, in vivo, po
[2] = Toxicity, intraperitoneal administration, mice; type: in vivo; conditions: mouse, in vivo, ip, intraperitoneal administration
mice [3] = experiment: Toxicity, intraperitoneal administration, mice; type: in vivo; conditions: i.p., 256 mg/kg, 512 mg/kg and 1,024 mg/kg
[4] = test system: stereotype behaviour caused by apomorphine; experiment: Interaction with apomorphine; type: in vivo, rats
Experimental: Batches of 6 rats are given CRL 40,028 30 minutes after the subcutaneous injection of 0.5 mg/kg of apomorphine.

spontaneous motility = experiment: Spontaneous motility (actimetry); type: in vivo, mice; conditions: for % relative to the control animals / % variation: rays crossed
Experimental: CRL 40,028 increases the motor activity of the animals from a dose of 16 mg/kg onwards. As this effect is representative of the activity of CRL 40,028, attempts have been made to obtain its kinetics more precisely. […]

residual motility = experiment: Residual motility; type: in vivo, mice; conditions: animals becoming accustomed to the chamber
[5] = test system: motor activity after anoxia; experiment: Motor recovery after hypoxia aggression; type: in vivo, mice
[6] = test system: stereotype behaviour induced by amphetamine; experiment: Interaction with amphetamine; type: in vivo, rats
Experimental: Amphetamine (2 mg/kg, given intraperitoneally) is injected 30 minutes after the administration of CRL 40,028 (6 rats/dose).

[7] = test system: hypothermia and ptosis produced by reserpine; experiment: Interaction with reserpine; type: in vivo, mice
Experimental: Batches of 6 mice are given an intraperitoneal injection of reserpine (2.5 mg/kg) 4 hours before the administration of CRL 40,028.

[8] = test system: hypothermia, trembling and peripheral cholinergic symptoms brought about by oxotremorine; experiment: Interaction with oxotremorine; type: in vivo, mice
Experimental: Mice (6 per dose) are given an intraperitoneal injection of 0.5 mg/kg of oxotremorine 30 minutes after the administration of CRL 40,028.

passes which entail pain = experiment: Four plate test; type: in vivo, mice; conditions: mice
Experimental: (§1) The test is carried out on batches of 20 mice, 30 minutes after the administration of CRL 40,028.

[9] = test system: convulsive effects of the electric shock; experiment: Electric shock; type: in vivo, mice
Experimental: as §1

[10] = General behaviour / psychopharmacological spectrum (species not stated); type: in vivo
mice [11] = experiment: General behaviour, mice; type: in vivo; conditions: at all the doses studied (toxicity test)
central nervous system = experiment: Pharmacological tests: action on the central nervous system, overall profile; type: in vivo
Experimental: The results of the pharmacological tests which were carried out have been summarised below.

groups of mice = experiment: Group toxicity; conditions: in words, comparison with amphetamine-type compounds
carrageenin oedema = experiment: Carrageenin oedema; type: in vivo

In the case of `O=C(C[S+]([O-])C(c1ccccc1)c1ccccc1)NO` (stereo not shown) [CRL 40,028, benzhydrylsulphinylacetohydroxamic acid], the LD50 [1] is reported as 1950 mg/kg, the LD50 [2] is reported as no more than 2050 mg/kg and the mortality (mice [3]) is reported as “no mortality was observed”. The “Boosting action on apomorphine” value ([4]; Table IV, graded symbols) was 0, the “boosting of the effect of apomorphine” value ([4]; in words, comparison with amphetamine / caffeine) was “absence of boosting of the effect of apomorphine” and the “activity on the stereotype behaviour caused by apomorphine” value ([4]; rats, apomorphine 0.5 mg/kg s.c.) was “does not exert any activity”. For the same compound, the minimal effective dose (spontaneous motility; Mus musculus, spontaneous motility, read-out: dose from which motor activity is increased) was no less than 16 mg/kg, the “time in which hypermotility appears” value (spontaneous motility; mice, 64 mg/kg) was “less than 30 minutes” and the “time in which hypermotility disappears” value (spontaneous motility; mice, 64 mg/kg) was 4 h. For the same compound, the “time of maximum hypermotility” value (spontaneous motility; mice, 64 mg/kg) was “one”, the “Number of rays crossed in 30 minutes” value (spontaneous motility; mice, 64 mg/kg, - 30 mins) was 311 and the “Number of rays crossed in 30 minutes” value (spontaneous motility; mice, 64 mg/kg, - 1 hr) was 424. The “Number of rays crossed in 30 minutes” value (spontaneous motility; mice, 64 mg/kg, - 2 hrs) was 376, the “Number of rays crossed in 30 minutes” value (spontaneous motility; mice, 64 mg/kg, - 4 hrs) was 234 and the “% relative to the control animals” value (spontaneous motility; mice, 64 mg/kg, - 30 mins) was 155%. The “% variation” value (spontaneous motility; mice, 64 mg/kg, - 30 mins) was “+55%”, the “% relative to the control animals” value (spontaneous motility; mice, 64 mg/kg, - 1 hr) was 212% and the “% variation” value (spontaneous motility; mice, 64 mg/kg, - 1 hr) was “+112%”. The “% relative to the control animals” value (spontaneous motility; mice, 64 mg/kg, - 2 hrs) was 188%, the “% variation” value (spontaneous motility; mice, 64 mg/kg, - 2 hrs) was “+88%” and the “% relative to the control animals” value (spontaneous motility; mice, 64 mg/kg, - 4 hrs) was 117%. For the same compound, the “% variation” value (spontaneous motility; mice, 64 mg/kg, - 4 hrs) was “+17%”, the “effect on residual motility” value (residual motility) was “stimulating effect” and the “aggravation of the effects of hypoxia” value ([5]; comparison with caffeine) was “absence of an aggravation”. The “motor activity after anoxia” value ([5]; mice, 512, 128 and 32 mg/kg, vs control animals) was “markedly greater motor activity than that of the control animals”, the “Boosting action on amphetamine” value ([6]; Table IV, graded symbols) was 0 and the “boosting of the effect of amphetamine” value ([6]; in words) was “does not boost the action of amphetamine; also recorded: absence of boosting”. The “effect on stereotype behaviour induced by amphetamine” value ([6]; rats, amphetamine 2 mg/kg i.p.) was “does not produce an overall change in the stereotype behaviour induced by amphetamine”, the “Anti-reserpine action (ptosis)” value ([7]; Table IV, graded symbols) was 0 and the anti-reserpine effect ([7]; in words) was “absence of a marked antagonism to reserpine”. The “hypothermia due to reserpine” value ([7]; in words) was “absence of a marked antagonism to hypothermia brought about by reserpine”, the “effect on hypothermic effect of reserpine” value ([7]; mice, 256 and 64 mg/kg, reserpine 2.5 mg/kg i.p.) was “partially counteracts the hypothermic effect of reserpine” and the “effect on ptosis produced by reserpine” value ([7]; mice, reserpine 2.5 mg/kg i.p.) was “does not resolve the palpebral ptosis”. The “Anti-oxotremorine action (peripheral)” value ([8]; Table IV, graded symbols) was 0, the “effect on hypothermic effect of oxotremorine” value ([8]; mice, 64 mg/kg) was “not” and the “effect on hypothermic effect of oxotremorine” value ([8]; mice, 256, 16 and 4 mg/kg) was “moderately opposes the hypothermic effect of oxotremorine”. For the same compound, the “effect on trembling brought about by oxotremorine” value ([8]; mice, at all the doses) was “moderately reduces”, the “effect on peripheral cholinergic symptoms (salivation, lachrymation, defaecation)” value ([8]; mice, oxotremorine 0.5 mg/kg i.p.) was “does not alter the increase in salivation, lachrymation and defaecation” and the “number of passes which entail pain” value (passes which entail pain; 4.1 mg/kg) was “a modest decrease in the number of such passes”. For the same compound, the “number of passes which entail pain” value (passes which entail pain; 256 and 64 mg/kg) was “an increase in the number of passes which entail pain”, the decrease in motility (passes which entail pain; at no dose) was “At no dose does CRL 40,028 bring about a major decrease in motility” and the “aggravation of the effects of electric shock” value ([9]; comparison with caffeine) was “absence of an aggravation”. The “antagonism against convulsive effects of the electric shock” value ([9]; mice, only at 256 mg/kg) was “a very moderate antagonism”, the stereotypies ([10]; Table IV, graded symbols) was 0 and the “stimulant properties (overall)” value ([10]; animal psychopharmacology) was “stimulant properties, namely causing excitation and hyper-reactivity, and hypermotility”. The stereotypies ([10]; in words, comparison with amphetamine-type compounds) was “absence of stereotypies”, the “excitation of the animal” value (mice [11]) was “excitation of the animal was observed” and the psychostimulant profile (central nervous system; comparison with amphetamine and caffeine) was “a psychostimulant which comes closer to caffeine”. The “toxicity in the groups of mice” value (groups of mice) was “virtual absence of specific (?) toxicity” and the solubility (Solubility in water) was less than 1000 µg/mL.

In the case of `[O-][S+](CCC1=NCCN1)C(c1ccccc1)c1ccccc1` (stereo not shown) [CRL 40,066, 2-(2-Benzhydrylsulphinyl-ether)-imidazoline hydrochloride], the anti-oedema effect (carrageenin oedema) is reported as “an anti-oedema effect” and the “action on the central nervous system” value (central nervous system; in words) is reported as “an effect on the central nervous system”.
